Assay results from article PMC4515248 (Applied Biochemistry and Biotechnology, 2015).

Molecular target: T1, CuCDH (Cerrena unicolor, UniProt S5R9V1)
T1 construct: native secreted intact flavocytochrome (heme b plus FAD domains) purified from culture supernatant; signal peptide (18 aa) removed; precursor 771 aa
Experiment: UV-visible spectrum of purified enzyme
Format: binding
Conditions: 100 mM sodium acetate, pH 4.5; oxidized and lactose-reduced

T1 sequence (S5R9V1 19-771): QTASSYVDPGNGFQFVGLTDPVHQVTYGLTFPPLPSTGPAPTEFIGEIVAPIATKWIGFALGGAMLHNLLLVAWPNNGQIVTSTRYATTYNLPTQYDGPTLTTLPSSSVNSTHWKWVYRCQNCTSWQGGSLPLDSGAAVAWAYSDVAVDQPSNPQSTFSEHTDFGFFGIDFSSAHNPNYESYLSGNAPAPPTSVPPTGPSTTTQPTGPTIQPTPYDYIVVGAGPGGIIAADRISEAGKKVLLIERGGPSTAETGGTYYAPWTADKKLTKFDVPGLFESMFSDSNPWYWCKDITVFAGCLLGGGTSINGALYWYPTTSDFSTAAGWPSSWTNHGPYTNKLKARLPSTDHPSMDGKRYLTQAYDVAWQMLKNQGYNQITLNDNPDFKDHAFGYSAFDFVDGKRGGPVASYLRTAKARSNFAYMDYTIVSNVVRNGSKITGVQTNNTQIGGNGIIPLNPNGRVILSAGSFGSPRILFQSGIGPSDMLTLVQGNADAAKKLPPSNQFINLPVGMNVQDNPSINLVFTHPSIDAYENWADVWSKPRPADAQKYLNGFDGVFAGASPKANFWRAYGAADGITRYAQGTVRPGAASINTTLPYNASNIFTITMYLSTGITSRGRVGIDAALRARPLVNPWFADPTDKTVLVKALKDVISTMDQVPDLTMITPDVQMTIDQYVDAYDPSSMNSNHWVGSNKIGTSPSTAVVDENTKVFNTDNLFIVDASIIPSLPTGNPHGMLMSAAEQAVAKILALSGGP

## Cc1cc2nc3c(=O)[nH]c(=O)nc-3n(C[C@H](O)[C@H](O)[C@H](O)COP(=O)(O)OP(=O)(O)OC[C@H]3O[C@@H](n4cnc5c(N)ncnc54)[C@H](O)[C@@H]3O)c2cc1C [FAD]
  UV-visible spectrum of purified enzyme: indicated the presence of heme and flavin cofactors in the protein
